In PMC5632533, “Mechanisms of action and in vivo antibacterial efficacy assessment of five novel hybrid peptides derived from Indolicidin and Ranalexin against Streptococcus pneumoniae” (PeerJ, 2017):

Test system: ICR (CD-1) mice
Experiment: In vivo toxicity in mice (SC, IN, IP routes)
Parameters: Aspartate aminotransferase, AST / Alanine transaminase, ALT / Alkaline phosphatase, ALP / Creatinine / Urea / Total bilirubin: unit not given here
Details: for Eosinophil / Erythrocytes, RBC / Granulocytes / Hematocrit, HCT / Hemoglobin Hgb / Lymphocytes / Mean corpuscular haemoglobin concentration, MCHC / Mean corpuscular haemoglobin, MCH / Mean corpuscular volume, MCV / Monocytes / White blood cells, WBC / platelet Counts, PLT / Alanine transaminase, ALT / Alkaline phosphatase, ALP / Aspartate aminotransferase, AST / Creatinine / Total bilirubin / Urea: 3 doses (1hr, 12hr, 24hr), RN7-IN9, RN7-IN6 10 mg/kg, day 7, mean±SD, 4 mice; for maximum IP dose at which no signs of stress or abnormal behavior were evident (non-toxic dose): doses at 1 h, 12 h, 24 h, no death up to seven days; for Alanine transaminase, ALT / Alkaline phosphatase, ALP / Aspartate aminotransferase, AST / Creatinine / Total bilirubin / Urea: serum
Description: In this study, 4-week old male, pathogen free ICR (CD-1) mice were purchased from InVivos (Lim Chu Kang, Singapore) and used to assess the in vivo toxicity and antibacterial efficacy of the novel peptides, as these animals are by far the most commonly used model for the study of pneumococcal disease ([Chiavolini, Pozzi & Ricci, 2008]). The mice were kept in ventilated polycarbonate cages (12 h light/dark cycle, 20 ± 2 °C and 55% relative humidity). All mice were familiarized for seven days before any experimental procedure and were given unlimited pellets and water ad libitum. All animal experimentations were conducted according to the guidelines approved by Faculty of Medicine Institutional Animal Care and Use Committee (FOM IACUC), University of Malaya (ethics Reference no. : 2013-07-15/MMBTR/SDS).
In order to evaluate the possible toxic effects correlated to peptides administered in mice, four hybrid peptides RN7-IN10, RN7-IN9, RN7-IN8 and RN7-IN6 were chosen for in vivo toxicity assessment, due to their promising in vitro antibacterial activity ([Jindal et al., 2015]). Mice were separated into four groups (each with four mice) and were injected with respective peptides at 1 h, 12 h, and 24 h (three-dose regimen) via IP, SC, and IN administration routes. The hybrid peptides were first administered at high doses (100 mg/kg for IP route, 100 mg/kg for SC routes and 20 mg/kg for IN route). Any abnormal behavior was recorded and survival of mice was noted as well. In case adverse effects such as high physical stress, severe lethargy, physical inactiveness, and/or death were detected, lower graded doses were given. All the administered mice were monitored for seven days or until death occurred. At day seven post administration, all animals were sacrificed and blood and organs were collected. Untreated mice were used as a control group.
Mice used to evaluate the in vivo toxicity and antibacterial activity of the hybrid peptides using the subcutaneous (SC) and intranasal (IN) administration routes, were anesthetized using a combination of a standard dose of xylazine (ilium xylazil-20, 10 mg/kg) and ketamine (Narketan®-10, 100 mg/kg) through intraperitoneal (IP) injection. After seven days of treatment, the in vivo toxicity and antibacterial efficacy experiments were ended and the surviving mice were anesthetized. Blood samples for Hematological and biochemical analysis were collected via cardiac puncture using a 25G syringe (BD bioscience, San Jose, CA, USA). Whole blood for heamatological analysis was collected in 500 µl dipotassium EDTA microtainer tubes (BD Bioscience, USA). About 500 µl of blood collected an eppedorff tube and centrifuged at 8000 rpm for 5 min and then the serum was transferred into a new 1.5 ml tube for biochemistry analysis. The mice were then euthanized by cervical dislocation, dissected and the following organs were collected for histopathology evaluation: lung, kidney, brain, liver and spleen.
For whole blood analysis, the parameters were number of red cells (RBC), number of white cells (WBC), lymphocytes, monocytes, eosinophil, granulocytes, haemoglobin (Hgb), mean corpuscular volume (MCV), hematocrit (HCT), platelet Counts (PLT), Mean corpuscular haemoglobin (MCH) and corpuscular haemoglobin concentration (MCHC). For biochemistry analysis, the parameters were alanine transaminase (ALT), creatinine, alkaline phosphatase (ALP), aspartate aminotransferase (AST), total bilirubin and urea.
The following organs were collected from all the dissected mice: lung, kidney, brain, spleen, and liver. All tissues were fixed in 10% (v/v) buffered formalin and processed for paraffin embedding. Hematoxylin–eosin (HE) was used to stain the histological sections at the histopathology laboratory, Veterinary Laboratory Service Unit, University Putra Malaysia (UPM).

[1] = IN, head doses: RN7-IN10, RN7-IN8 20 mg/kg
[2] = SC, head doses: RN7-IN10, RN7-IN8 20 mg/kg

FLGGLIKWKWPWWPWRR-NH2 [RN7-IN10, hybrid peptide of ranalexin (residues 1-7) and indolicidin (residues 4-13)]
Eosinophil [1]: 2.7±0.97% | Erythrocytes, RBC [1]: 9.62±0.79 10^6/mm^3 | Granulocytes [1]: 66.6±21.64% | Hematocrit, HCT [1]: 47.95±3.18% | Hemoglobin Hgb [1]: 15.47 ± 1.07 g/dL | Lymphocytes [1]: 58.5±7.53% | Mean corpuscular haemoglobin concentration, MCHC [1]: 28.3 ± 8.15 g/dL | Mean corpuscular haemoglobin, MCH [1]: 20 ± 7.87 pg | Mean corpuscular volume, MCV [1]: 50.75±1.7 µm^3 | Monocytes [1]: 2.2±0.37% | White blood cells, WBC [1]: 5.2±1.44 10^3/mm^3 | platelet Counts, PLT [1]: 619.5±100.42 10^3/mm^3 | Eosinophil (IP, RN7-IN10, RN7-IN8 20 mg/kg): 2.23±1.61% | Erythrocytes, RBC (IP, RN7-IN10, RN7-IN8 20 mg/kg): 9.16±0.92 10^6/mm^3 | Granulocytes (IP, RN7-IN10, RN7-IN8 20 mg/kg): 46.27±16.41% | Hematocrit, HCT (IP, RN7-IN10, RN7-IN8 20 mg/kg): 47.67±5.6% | Hemoglobin Hgb (IP, RN7-IN10, RN7-IN8 20 mg/kg): 15.85 ± 1.27 g/dL | Lymphocytes (IP, RN7-IN10, RN7-IN8 20 mg/kg): 51.03±16.69% | Mean corpuscular haemoglobin concentration, MCHC (IP, RN7-IN10, RN7-IN8 20 mg/kg): 33.85 ± 0.60 g/dL | Mean corpuscular haemoglobin, MCH (IP, RN7-IN10, RN7-IN8 20 mg/kg): 17.6 ± 0.46 pg | Mean corpuscular volume, MCV (IP, RN7-IN10, RN7-IN8 20 mg/kg): 50.75±2.06 µm^3 | Monocytes (IP, RN7-IN10, RN7-IN8 20 mg/kg): 2.8±0.5% | White blood cells, WBC (IP, RN7-IN10, RN7-IN8 20 mg/kg): 4.2±0.55 10^3/mm^3 | platelet Counts, PLT (IP, RN7-IN10, RN7-IN8 20 mg/kg): 535±150.11 10^3/mm^3 | maximum IP dose at which no signs of stress or abnormal behavior were evident (non-toxic dose) (IP): 20 mg/kg | Eosinophil [2]: 2.82±0.25% | Erythrocytes, RBC [2]: 8.04±1.18 10^6/mm^3 | Hematocrit, HCT [2]: 41.5±3.7% | Hemoglobin Hgb [2]: 13.75 ± 1.77 g/dL | Lymphocytes [2]: 52.2±3.3% | Mean corpuscular haemoglobin concentration, MCHC [2]: 34.45 ± 1.35 g/dL | Mean corpuscular haemoglobin, MCH [2]: 17.08 ± 0.4 pg | Mean corpuscular volume, MCV [2]: 50±2.16 µm^3 | Monocytes [2]: 2.2±0.28% | White blood cells, WBC [2]: 3.8±0.2 10^3/mm^3 | platelet Counts, PLT [2]: 568.75±81.73 10^3/mm^3 | Alanine transaminase, ALT [1]: 66.9±17.02 | Alkaline phosphatase, ALP [1]: 133.3±10.1 | Aspartate aminotransferase, AST [1]: 172±8.78 | Creatinine [1]: 40.94±0.83 | Total bilirubin [1]: 2.15±0.14 | Urea [1]: 9.3±1.68 | Alanine transaminase, ALT (IP, RN7-IN10, RN7-IN8 20 mg/kg): 52.76±12.22 | Alkaline phosphatase, ALP (IP, RN7-IN10, RN7-IN8 20 mg/kg): 124.33±10.6 | Aspartate aminotransferase, AST (IP, RN7-IN10, RN7-IN8 20 mg/kg): 181.66±38.27 | Creatinine (IP, RN7-IN10, RN7-IN8 20 mg/kg): 38.1±6.97 | Total bilirubin (IP, RN7-IN10, RN7-IN8 20 mg/kg): 1.82±0.03 | Urea (IP, RN7-IN10, RN7-IN8 20 mg/kg): 9.6±2.11 | Alanine transaminase, ALT [2]: 51.25±11.9 | Aspartate aminotransferase, AST [2]: 175±25.41 | Creatinine [2]: 37.8±3.43 | Total bilirubin [2]: 2.1±0.35 | Urea [2]: 9.2±0.8

FLGGLIKWPWWPWRR-NH2 [RN7-IN8, hybrid peptide of ranalexin (residues 1-7) and indolicidin (residues 6-13)]
Eosinophil [1]: 4.3±3.6% | Erythrocytes, RBC [1]: 8.95±0.53 10^6/mm^3 | Granulocytes [1]: 52.9±9.54% | Hematocrit, HCT [1]: 44.8±2.9% | Hemoglobin Hgb [1]: 14.42 ± 0.76 g/dL | Lymphocytes [1]: 45.6±14.31% | Mean corpuscular haemoglobin concentration, MCHC [1]: 32.22 ± 0.4 g/dL | Mean corpuscular haemoglobin, MCH [1]: 16.12 ± 0.33 pg | Mean corpuscular volume, MCV [1]: 50.25±1.25 µm^3 | Monocytes [1]: 3.22±0.68% | White blood cells, WBC [1]: 3.95±0.54 10^3/mm^3 | platelet Counts, PLT [1]: 612±130.37 10^3/mm^3 | Eosinophil (IP, RN7-IN10, RN7-IN8 20 mg/kg): 2.34±0.63% | Erythrocytes, RBC (IP, RN7-IN10, RN7-IN8 20 mg/kg): 8.14±0.34 10^6/mm^3 | Granulocytes (IP, RN7-IN10, RN7-IN8 20 mg/kg): 53.38±12.35% | Hematocrit, HCT (IP, RN7-IN10, RN7-IN8 20 mg/kg): 42.73±1.66% | Hemoglobin Hgb (IP, RN7-IN10, RN7-IN8 20 mg/kg): 14.55 ± 0.17 g/dL | Lymphocytes (IP, RN7-IN10, RN7-IN8 20 mg/kg): 53.7±8.22% | Mean corpuscular haemoglobin concentration, MCHC (IP, RN7-IN10, RN7-IN8 20 mg/kg): 34.17 ± 1.13 g/dL | Mean corpuscular haemoglobin, MCH (IP, RN7-IN10, RN7-IN8 20 mg/kg): 17.92 ± 0.56 pg | Mean corpuscular volume, MCV (IP, RN7-IN10, RN7-IN8 20 mg/kg): 52.75±0.95 µm^3 | Monocytes (IP, RN7-IN10, RN7-IN8 20 mg/kg): 2.77±0.88% | White blood cells, WBC (IP, RN7-IN10, RN7-IN8 20 mg/kg): 4.18±0.36 10^3/mm^3 | platelet Counts, PLT (IP, RN7-IN10, RN7-IN8 20 mg/kg): 472.5±100.52 10^3/mm^3 | maximum IP dose at which no signs of stress or abnormal behavior were evident (non-toxic dose) (IP): 20 mg/kg | Eosinophil [2]: 2.42±0.61% | Erythrocytes, RBC [2]: 9.17±0.83 10^6/mm^3 | Granulocytes [2]: 58.62±9.82% | Hematocrit, HCT [2]: 46.15±3.69% | Hemoglobin Hgb [2]: 15.82 ± 1.11 g/dL | Lymphocytes [2]: 43.85±6.28% | Mean corpuscular haemoglobin concentration, MCHC [2]: 34.38 ± 0.52 g/dL | Mean corpuscular haemoglobin, MCH [2]: 17.32 ± 0.49 pg | Mean corpuscular volume, MCV [2]: 50.25±0.95 µm^3 | Monocytes [2]: 1.92±0.15% | White blood cells, WBC [2]: 3.47±0.48 10^3/mm^3 | platelet Counts, PLT [2]: 445.75±47.21 10^3/mm^3 | Alanine transaminase, ALT [1]: 44.5±18.9 | Alkaline phosphatase, ALP [1]: 128.5±21.7 | Aspartate aminotransferase, AST [1]: 176.3±31.91 | Creatinine [1]: 40.56±1.74 | Total bilirubin [1]: 2.21±0.18 | Urea [1]: 8.89±1.30 | Alanine transaminase, ALT (IP, RN7-IN10, RN7-IN8 20 mg/kg): 62.1±23.84 | Alkaline phosphatase, ALP (IP, RN7-IN10, RN7-IN8 20 mg/kg): 115.4±34.9 | Aspartate aminotransferase, AST (IP, RN7-IN10, RN7-IN8 20 mg/kg): 148.9±21.51 | Creatinine (IP, RN7-IN10, RN7-IN8 20 mg/kg): 39.2±3.81 | Total bilirubin (IP, RN7-IN10, RN7-IN8 20 mg/kg): 1.98±0.11 | Urea (IP, RN7-IN10, RN7-IN8 20 mg/kg): 10.34±2.36 | Alanine transaminase, ALT [2]: 50±5.49 | Alkaline phosphatase, ALP [2]: 134±8.24 | Aspartate aminotransferase, AST [2]: 170.75±14.52 | Creatinine [2]: 43.4±0.8 | Total bilirubin [2]: 1.84±0.12 | Urea [2]: 9.61±3.02
